Results taken from patent publication US10220072B2, “Mesalamine for the treatment of cancer” (Cipla Limited, priority 2016, dated 2019).
Like-named read-outs stand apart in the source and are kept apart here. Values belong to the molecule of their own block, whether it stands above or below them.

Columns and labels:
[1] = test system: Human renal cell carcinoma cell line (A498); experiment: In vivo anti-tumor efficacy in xenograft model; set-up: species or system female athymic nude mice
Procedure: Healthy 10 female athymic nude mice were recruited for the donor cell inoculation. Animals were subcutaneously injected at flank region with 10 million A498 cells suspended in 200 μl of media and matrigel. Animals were monitored for solid tumor growth. […] Tumors were fragmented in to ˜30 mg size. […] Tumor bearing animals were selected from the experimental animals and grouped on basis of tumor size, into six groups containing 7 animals in each group. […] Group 3 received mesalamine at 250 mg/kg. [table] The tumor sizes were measured weekly twice from the date of tumor appearance till the end of the experiment. Tumor size was measured by digital vernier caliper (MITUTOYO) by measuring length (L=longest axis) and width (W=shortest axis). […] From the tumor volume data mean tumor volume and % tumor growth inhibition (% TGI) were determined.

[2] = test system: 10 human tumor xenograft-derived cell suspensions or tumor cell lines of renal cancer; experiment: Clonogenic assay: ex vivo colony formation (anchorage independent growth) in semi-solid medium; format: cell-based; conditions: for IC50: Homo sapiens, mean across 10 renal cancer tumor models, test concentrations 0.0698 mM to 3 mM
Procedure: In the present study, mesalamine was characterized for their ability to inhibit anchorage independent growth and ex vivo colony formation of tumor cells in semi-solid medium. Mesalamine was tested against 10 human tumor xenograft-derived cell suspensions or tumor cell lines of renal cancer. Test concentrations ranged from 0.0698 mM to 3 mM.
Cell lines were routinely passaged one or twice weekly. All cells were grown at 37° C. in a humidified atmosphere with 5% CO2 in RPMI 1640 medium (Biochrom) supplemented with 10% (v/v) fetal calf serum and 0.1 mg/mL gentamicin. The percentage of viable cells was determined in a Neubauer-hemocytometer using trypan blue exclusion.
Tumor xenografts (patient-derived, as well as cell line-derived xenografts) were passaged as subcutaneous xenografts in NMRI nu/nu mice. At a tumor volume of 400-1000 mm^3 tumor-bearing mice were sacrificed and tumors were collected under sterile conditions without delay according to the relevant Oncotest SOPs and the relevant animal welfare guidelines published by the FELASA and the GV-SOLAS. Tumors were mechanically disaggregated and subsequently incubated with an enzyme cocktail consisting of collagenase type IV (41 U/mL), DNase I (125 U/mL), hyaluronidase type III (100 U/mL), and dispase II (1.0 U/mL) in RPMI 1640 medium (Life Technologies) at 37° C. for 60-120 minutes. Cells were passed through sieves of 100 μm and 40 μm mesh size (Cell Strainer, BD Falcon™), and washed with RPMI 1640 medium. The percentage of viable cells was determined in a Neubauer-hemocytometer using trypan blue exclusion. Aliquots of the cells were frozen down, and stored in liquid nitrogen. On each day of an experiment, a frozen aliquot of tumor cells was thawed and used for preparation of assay plates.
The clonogenic assay was carried out in a 96 well plate format using ultra low attachment plates. […] Cultures were incubated at 37° C. and 7.5% CO2 in a humidified atmosphere for 8 to 13 days and monitored closely for colony growth using an inverted microscope. […]

[3] = G3, 250 mg/kg p.o. q.d.x21, Day 1
[4] = G3, 250 mg/kg p.o. q.d.x21, Day 6
[5] = G3, 250 mg/kg p.o. q.d.x21, Day 9
[6] = G3, 250 mg/kg p.o. q.d.x21, Day 13
[7] = G3, 250 mg/kg p.o. q.d.x21, Day 16
[8] = G3, 250 mg/kg p.o. q.d.x21, Day 20
[9] = G2, 20 mg/kg p.o. q.d.x21 (sub-therapeutic dose), Day 1
[10] = G2, 20 mg/kg p.o. q.d.x21 (sub-therapeutic dose), Day 6
[11] = G2, 20 mg/kg p.o. q.d.x21 (sub-therapeutic dose), Day 9
[12] = G2, 20 mg/kg p.o. q.d.x21 (sub-therapeutic dose), Day 13
[13] = G2, 20 mg/kg p.o. q.d.x21 (sub-therapeutic dose), Day 16
[14] = G2, 20 mg/kg p.o. q.d.x21 (sub-therapeutic dose), Day 20

IC50 ([2]; continuous exposure 8 to 13 days, read-out: mean relative IC50 value, inhibition of colony formation): 1210 µM
IC50 ([2]; read-out: second mean IC50 value printed in brackets after the mean relative IC50): 1260 µM
Compound: Nc1ccc(O)c(C(=O)O)c1 [Mesalamine, 5-amino-2-hydroxybenzoic acid]
Mean Tumor Growth Inhibition (% TGI) [1, 3]: 1.56%
Mean Tumor Volume [1, 3]: 145.26 mm^3
Mean Tumor Growth Inhibition (% TGI) [1, 4]: 51.29%
Mean Tumor Volume [1, 4]: 161.68 mm^3
Mean Tumor Growth Inhibition (% TGI) [1, 5]: 46.01%
Mean Tumor Volume [1, 5]: 250.41 mm^3
Mean Tumor Growth Inhibition (% TGI) [1, 6]: 51.09%
Mean Tumor Volume [1, 6]: 301.82 mm^3
Mean Tumor Growth Inhibition (% TGI) [1, 7]: 47.87%
Mean Tumor Volume [1, 7]: 501.10 mm^3
Mean Tumor Growth Inhibition (% TGI) [1, 8]: 58.08%
Mean Tumor Volume [1, 8]: 536.78 mm^3
inhibiting tumor formation (anti-tumor efficacy by itself) ([1]; at the dose tested (250 mg/kg p.o. q.d.x21)): more than 50%
anti-tumor efficacy compared with standard ([1]; mesalamine 250 mg/kg vs sunitinib 20 mg/kg, p.o. q.d.x21): comparable to sunitinib
Bottom plateaus of the concentration-effect curves of responding tumor models ([2]; responding tumor models): 0 to 18%

Compound: CCN(CC)CCNC(=O)c1c(C)[nH]c(/C=C2\C(=O)Nc3ccc(F)cc32)c1C [Sunitinib]
Mean Tumor Growth Inhibition (% TGI) [1, 9]: 1.47%
Mean Tumor Volume [1, 9]: 145.40 mm^3
Mean Tumor Growth Inhibition (% TGI) [1, 10]: 47.31%
Mean Tumor Volume [1, 10]: 174.90 mm^3
Mean Tumor Growth Inhibition (% TGI) [1, 11]: 43.52%
Mean Tumor Volume [1, 11]: 261.95 mm^3
Mean Tumor Growth Inhibition (% TGI) [1, 12]: 44.80%
Mean Tumor Volume [1, 12]: 340.62 mm^3
Mean Tumor Growth Inhibition (% TGI) [1, 13]: 53.39%
Mean Tumor Volume [1, 13]: 448.05 mm^3
Mean Tumor Growth Inhibition (% TGI) [1, 14]: 50.78%
Mean Tumor Volume [1, 14]: 630.25 mm^3
